19 compounds from patent US20260217708A1, “FUSED BENZAZEPINE DERIVATIVES FOR USE IN THE TREATMENT OF CANCER AND EPILEPSY” (UCB BIOPHARMA SRL, priority 2023, published 2026) can be followed below.

Molecules are shown by their SMILES.

Test [1] deals with T1, system Xc^− (Homo sapiens, UniProt Q9UPY5).
T1 sequence (Q9UPY5 1-501): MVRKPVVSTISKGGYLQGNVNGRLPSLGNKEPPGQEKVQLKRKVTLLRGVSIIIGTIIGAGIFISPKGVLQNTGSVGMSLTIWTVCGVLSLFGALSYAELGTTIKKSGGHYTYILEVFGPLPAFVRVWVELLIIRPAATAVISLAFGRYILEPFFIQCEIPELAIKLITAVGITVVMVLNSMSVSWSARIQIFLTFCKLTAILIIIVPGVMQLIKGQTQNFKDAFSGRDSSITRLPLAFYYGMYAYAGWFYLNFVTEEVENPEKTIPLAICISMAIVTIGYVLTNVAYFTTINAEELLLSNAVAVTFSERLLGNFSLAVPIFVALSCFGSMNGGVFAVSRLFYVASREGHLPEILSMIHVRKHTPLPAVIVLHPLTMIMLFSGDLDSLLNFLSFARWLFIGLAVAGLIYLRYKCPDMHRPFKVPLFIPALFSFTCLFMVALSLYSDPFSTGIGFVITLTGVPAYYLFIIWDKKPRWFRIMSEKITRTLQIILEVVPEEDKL
T1 sequence (P08195 1-529 partner): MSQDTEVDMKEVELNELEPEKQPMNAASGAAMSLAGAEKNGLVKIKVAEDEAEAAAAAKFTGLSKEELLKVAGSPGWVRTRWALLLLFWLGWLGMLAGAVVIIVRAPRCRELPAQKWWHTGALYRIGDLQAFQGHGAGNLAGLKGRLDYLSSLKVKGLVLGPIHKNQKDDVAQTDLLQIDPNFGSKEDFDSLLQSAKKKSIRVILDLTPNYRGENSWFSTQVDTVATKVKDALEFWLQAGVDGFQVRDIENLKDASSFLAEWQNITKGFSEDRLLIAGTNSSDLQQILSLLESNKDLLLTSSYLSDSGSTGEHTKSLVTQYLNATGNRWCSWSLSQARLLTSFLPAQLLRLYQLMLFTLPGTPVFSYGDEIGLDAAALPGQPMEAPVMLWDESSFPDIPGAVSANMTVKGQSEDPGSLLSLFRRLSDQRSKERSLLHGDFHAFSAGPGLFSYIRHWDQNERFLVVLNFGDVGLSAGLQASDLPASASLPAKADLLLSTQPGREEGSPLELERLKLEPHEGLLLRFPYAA
The test is described as follows: Cystine-induced glutamate release assay. Details: endogenous in cells; host or cells: H4 cells. The note with it: H4 cells, sodium-free HEPES buffer, 50 μM L-Cystine, 2 hours, Amplex Red glutamate readout; for IC50: read-out: pIC50 Cystine-induced glutamate release assay (converted). In kind it is cell-based. Put shortly:
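IC50 (reported as pIC50) normalized to DMSO 1% and Erastin 50 μM controls, from Amplex Red fluorescence of glutamate exported into supernatant. H4 cells were washed into sodium-free buffer to exclude EAAT transport, then given compound with 50 μM L-cystine for 2 h in the incubator.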

Test [2] has as its target T1, system Xc^−. The test is described as follows: [^14C]L-Cystine uptake assay. Format: cell-based. The note with it: H4 cells, sodium-free HEPES buffer, 0.5 μM L-[14C]Cystine and 4.5 μM L-Cystine, 1 hour at 37° C.; read-out: pIC50 [^14C] L-Cystine uptake assay (converted). Details: endogenous in cells; host or cells: H4 cells. Put shortly: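 Compound effect is given as pIC50, taken between controls of 1% DMSO and 50 μM Erastin. Human H4 cells were pretreated 15 min with compound in sodium-free buffer, then took up 0.5 μM [14C]cystine with 4.5 μM cold cystine for 1 hour at 37° C, read by scintillation proximity counting.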

Take `COc1nc(C)cc2c1-c1cccnc1CC(=O)N2CC(=O)Nc1ccc(C(F)F)cc1` [#83, N-[4-(difluoromethyl)-phenyl]-2-(3-methoxy-5-methyl-9-oxo-4,8,12-triazatricyclo[9.4.0.0^2,7]pentadeca-1(11),2,4,6, 12,14-hexaen-8-yl)acet-amide]: the IC50 on system Xc^− [1] and on system Xc^− [2] was less than 15.8 nM each time.

In the case of `Cc1cc2c(c(F)n1)-c1cccnc1[C@@H](C)C(=O)N2CC(=O)Nc1ccc2c(c1)nnn2C` [#147, 2-[(10R)-3-fluoro-5,10-dimethyl-9-oxo-4,8,12-triazatricyclo[9.4.0.0^2,7]pentadeca-1(11),2(7),3,5,12,14-hexaen-8-yl]-N-(1-methylbenzotriazol-5-yl)acetamide], the IC50 was 39.8 to 100 nM at system Xc^− [1] and 100 to 501 nM at system Xc^− [2].

On to `COc1nc(C)cc2c1-c1ccccc1CC(=O)N2CC(=O)Nc1ccc(C(F)(F)F)cc1` [#390, 2-(1-methoxy-3-methyl-6-oxo-7H-pyrido[4,3-d][3]benzazepin-5-yl)-N-[4-(trifluoromethyl)phenyl]acetamide], for which the IC50 on system Xc^− [1] and at system Xc^− [2] was 15.8 to 39.8 nM throughout.

`CC1C(=O)N(CC(=O)Nc2ccc(C(F)F)cc2)c2cc(C#N)ccc2-c2cc(F)cnc21` (single isomer, unassigned) [#308, 2-[9-cyano-2-fluoro-5-methyl-6-oxo-5H-pyrido[2,3-d][1]benzazepin-7-yl]-N-[4-(difluoromethyl)phenyl]acetamide]: the IC50 at system Xc^− [1] was less than 15.8 nM; at system Xc^− [2] it was 15.8 to 39.8 nM.

For the compound `CC1C(=O)N(CC(=O)Nc2ccc(Cl)c(F)c2)c2cc(F)nc(OCCO)c2-c2cccnc21` (centres unmarked) [#376, N-(4-chloro-3-fluoro-phenyl)-2-[5-fluoro-3-(2-hydroxyethoxy)-10-methyl-9-oxo-4.8,12-triazatricyclo[9.4.0.0^2,7]pentadeca-1(15),2,4,6,11,13-hexaen-8-yl]acetamide], the figures for the IC50 on system Xc^− [1] and at system Xc^− [2] were 15.8 to 39.8 nM and 39.8 to 100 nM, respectively.

For the compound `Cc1cc2c(c(F)n1)-c1cccnc1[C@@H](CO)C(=O)N2CC(=O)Nc1ccc(C(F)(F)F)cc1` (single isomer, unassigned) [#206, Enantiomer (10S) or (10R) of 2-[(3-fluoro-10-(hydroxymethyl)-5-methyl-9-oxo-4,8,12-triazatricyclo[9.4.0.0^2,7]pentadeca-1(11),2(7),3,5,12,14-hexaen-8-yl]-N-[4-(trifluoromethyl)phenyl]acetamide], the IC50 on system Xc^− [1] was 39.8 to 100 nM; at system Xc^− [2], less than 15.8 nM.

In the case of `Cc1cc2c(c(F)n1)-c1cc(C)nn1CC(=O)N2CC(=O)Nc1ccc(C(F)(F)F)cc1` [#106, 2-(14-fluoro-4,12-dimethyl-8-oxo-5,6,9,13-tetrazatricyclo[8.4.0.0^2,6]tetradeca-1(10),2,4,11,13-pentaen-9-yl)-N-[4-(trifluoromethyl)phenyl]acetamide], the IC50 on system Xc^− [1] is 39.8 to 100 nM; on system Xc^− [2], 100 to 501 nM.

Consider `Cc1cc2c(c(=O)n1C)-c1cccnc1C(C)C(=O)N2CC(=O)Nc1ccc(Cl)c(F)c1` (centres unmarked) [#254, N-(4-chloro-3-fluoro-phenyl)-2-(4,5,10-trimethyl-3,9-dioxo-4,8,12-triazatricyclo[9.4.0.0^2,7]pentadeca-1(15),2(7),5,11,13-pentaen-8-yl)acetamide], for which the IC50 at system Xc^− [1] and at system Xc^− [2] was less than 15.8 nM in each case.

Turning to `Cc1cc2c(c(F)n1)-c1ccnn1[C@@H](C)C(=O)N2CC(=O)Nc1ccc(C(F)(F)F)cc1` (single isomer, unassigned) [#198, Enantiomer (7R) or (7S) of 2-[14-fluoro-7,12-dimethyl-8-oxo-5,6,9,13-tetrazatricyclo[8.4.0.0^2,6]tetradeca-1(10),2,4,11,13-pentaen-9-yl]-N-[4-(trifluoromethyl)phenyl]acetamide], the IC50 at system Xc^− [1] and on system Xc^− [2] was 39.8 to 100 nM each time.

In the case of `Cc1cc2c(c(F)n1)-c1cccnc1[C@@H](C)C(=O)N2CC(=O)Nc1ccc(C2CC2(F)F)cc1` (single isomer, unassigned) [#146], the IC50 at system Xc^− [1] was 39.8 to 100 nM; at system Xc^− [2] it was 100 to 501 nM.

In the case of `COc1nc(OC(F)F)cc2c1-c1cccnc1C(C)C(=O)N2CC(=O)Nc1ccc(C(F)F)cc1` (single isomer, unassigned) [#330, 2-[5-(difluoromethoxy)-3-methoxy-10-methyl-9-oxo-4,8,12-triazatricyclo[9.4.0.0^2,7]pentadeca-1(15),2(7),3,5,11,13-hexaen-8-yl]-N-[4-(difluoromethyl)phenyl]acetamide], the “pIC50 Cystine-induced glutamate release assay” value on system Xc^− [1] was “C (about 7.40 < pIC50 ≤ about 7.80)”. In addition, at system Xc^− [2], the IC50 was less than 15.8 nM.

Turning to `Cc1cc2c(c(Cl)n1)-c1cccnc1C(C)C(=O)N2CC(=O)Nc1ccc(C(F)(F)F)cn1` (single isomer, unassigned) [#229, Enantiomer (10S) or (10R) of 2-[3-chloro-5,10-dimethyl-9-oxo-4,8,12-triazatricyclo[9.4.0.0^2,7]pentadeca-1(15),2,4,6,11,13-hexaen-8-yl]-N-[5-(trifluoromethyl)-2-pyridyl]acetamide], the IC50 on system Xc^− [1] was 15.8 to 39.8 nM; on system Xc^− [2] it was 39.8 to 100 nM.

On to `Cc1cc2c(cn1)-c1cc(F)ccc1CC(=O)N2CC(=O)Nc1ccc(C(F)(F)F)cc1` [#33, 2-(10-fluoro-3-methyl-6-oxo-7H-pyrido[4,3-d][3]benzazepin-5-yl)-N-[4-(trifluoro-methyl)phenyl] acetamide], for which the IC50 is 39.8 to 100 nM on system Xc^− [1] and 15.8 to 39.8 nM at system Xc^− [2].

For `Cc1cc2c(c(F)n1)-c1cc(F)cnc1C(C)C(=O)N2CC(=O)Nc1ccc(C(C)(F)F)cc1` (single isomer, unassigned) [#263, 2-[3,14-difluoro-5,10-dimethyl-9-oxo-4,8,12-triazatricyclo[9.4.0.0^2,7]pentadeca-1(15),2,4,6,11,13-hexaen-8-yl]-N-[4-(1,1-difluoroethyl)phenyl]acetamide], the IC50 on system Xc^− [1] and at system Xc^− [2] was less than 15.8 nM in each case.

As for `Cc1cc2c(c(F)n1)-c1cccnc1C(C)C(=O)N2CC(=O)Nc1ccc(C(F)F)cc1` (centres unmarked) [#132, N-[4-(difluoromethyl)phenyl]-2-(3-fluoro-5,10-dimethyl-9-oxo-4,8,12-triazatricyclo[9.4.0.0^2,7]pentadeca-1(11),2(7),3,5,12,14-hexaen-8-yl)acetamide], the IC50 at system Xc^− [1] was 39.8 to 100 nM; at system Xc^− [2], less than 15.8 nM.

`Cc1cc2c(c(F)n1)-c1cccnc1[C@@H](C)C(=O)N2CC(=O)Nc1ccc(Br)cc1` [#145, N-(4-bromophenyl)-2-[(10R)-3-fluoro-5,10-dimethyl-9-oxo-4,8,12-triazatricyclo[9.4.0.0^2,7]pentadeca-1(11),2(7),3,5,12,14-hexaen-8-yl]acetamide]: the IC50 on system Xc^− [1] and at system Xc^− [2] was less than 15.8 nM in each case.

On to `CCn1c2c(cc(C)c1=O)N(CC(=O)Nc1ccc(Cl)c(F)c1)C(=O)C(C)c1ccccc1-2` (centres unmarked) [#349, N-(4-chloro-3-fluoro-phenyl)-2-(1-ethyl-3,7-dimethyl-2,6-dioxo-7H-pyrido[3,2-d][3]benzazepin-5-yl)acetamide], for which the IC50 at system Xc^− [1] was 15.8 to 39.8 nM; on system Xc^− [2] it was less than 15.8 nM.

In the case of `CC1C(=O)N(CC(=O)Nc2ccc(Cl)c(F)c2)c2cc(C#N)ccc2-c2cccnc21` (centres unmarked) [#311, N-(4-chloro-3-fluoro-phenyl)-2-(9-cyano-5-methyl-6-oxo-5H-pyrido[2,3-d][1]benzazepin-7-yl)acetamide], the IC50 at system Xc^− [1] is less than 15.8 nM; on system Xc^− [2] it was 39.8 to 100 nM.

For the compound `COc1nc(OC(F)F)cc2c1-c1cccnc1C(C)C(=O)N2CC(=O)Nc1ccc(C(F)F)cc1` (single isomer, unassigned) [#329, 2-[5-(difluoromethoxy)-3-methoxy-10-methyl-9-oxo-4,8,12-triazatricyclo[9.4.0.0^2,7]pentadeca-1(15),2(7),3,5,11,13-hexaen-8-yl]-N-[4-(difluoromethyl)phenyl]acetamide], the IC50 at system Xc^− [1] and on system Xc^− [2] was 15.8 to 39.8 nM each time.
